In paper PMC12040169 (PLOS Biology, 2025):

Test: in vitro
Settings: human, hela cells, % viability

Compared with `CCOc1ccc(NC(=O)C2CCC(C)(C(=O)O)C2(C)C)cc1` (stereo not shown) [CBK295665], `COc1cccc(NC(=O)O[C@@H]2CC[C@]3(C)C(CC[C@H]4OC(=O)C[C@H]43)[C@]2(C)CO)c1` (stereo partly shown) [CBK289576] is lower in viability at 28.5 h, 10 µM: 106% for the first, 95.2% for the second.

First: O=C(Cc1cc(F)c(F)c(F)c1)Nc1ccc2ncccc2c1 [CBK159811]
Second: O=C(Nc1ccc(F)c(Cl)c1)c1cccnc1Sc1cccs1 [CBK057512]
The viability at 28.5 h, 10 µM of the first is higher: 93% for the first, 89% for the second.

Compared with `C(=N\c1ccc2c(c1)OCCOCCOc1cc(/N=C/c3ccccc3)ccc1OCCOCCO2)/c1ccccc1` [CBK261388], `O=C(COc1ccc(S(=O)(=O)N2CCCC2)cc1Cl)Nc1ccc2c(c1)OCCO2` [CBK268559] is higher in viability at 28.5 h, 10 µM: 100% for the first, 116% for the second.

First: O=C(O)CCc1ccc(S(=O)(=O)N2CCOCC2)cc1 [CBK287224]
Second: O=S(=O)(c1ccc(Cl)cc1)N1CCN(S(=O)(=O)N2CCOCC2)CC1 [CBK266878]
The viability at 28.5 h, 10 µM of the first is lower: 90.1% for the first, 92.9% for the second.

First: COC(=O)CCNc1nc(-c2ccc(Br)cc2)nc2ccccc12 [CBK263628]
Second: COc1ccccc1-c1ccc(NC(=O)CCc2nc3ccccc3[nH]2)cc1 [CBK285651]
The viability at 28.5 h, 10 µM of the first is lower: 97.9% for the first, 103% for the second.

First: COCCNc1nccnc1-c1ccccc1 [CBK088555]
Second: Brc1cn2ccnc2c(NCc2ccccn2)n1 [CBK038024]
The viability at 28.5 h, 10 µM of the first is higher: 105% for the first, 88.7% for the second.

Going from `CN(C(=O)CCn1c(=O)oc2cc(Cl)ccc21)C1CCNC1` (stereo not shown) [CBK304310C] to `Cc1nn(CC(=O)N2C(C)CCCC2C)c(=O)c2cc3occc3n12` (stereo not shown) [CBK283555], the viability at 28.5 h, 10 µM falls from 101% to 80.8%.

Going from `NC(=O)[C@@H]1C[C@@H](O)[C@H](O)[C@H]2[C@@H]1N(c1ccc(Cl)cc1)C(=S)N2CC1CCCCC1` [CBK288933] to `CCc1ccc(C(O)CNC2CCN(C3CCCCC3)CC2)cc1` (stereo not shown) [CBK304604], the viability at 28.5 h, 10 µM rises from 86.8% to 88.2%.

Compared with `CC(CN1CCN(Cc2ccccc2)CC1)N(C(=O)c1ccoc1)c1ccccn1` (stereo not shown) [CBK074861C], `Cc1ccc(Nc2ncc(C(=O)NCc3ccccn3)c3ccccc23)cc1Cl` [CBK291113] is higher in viability at 28.5 h, 10 µM: 92.1% for the first, 109% for the second.

First: CCN(CC)C(=O)C1CCCN(C(=O)NC2CCc3ccccc32)C1 (stereo not shown) [CBK156156]
Second: O=C(Cn1cccc(C(=O)NC2CCCCC2)c1=O)NCC1(c2ccccc2Cl)CC1 [CBK286054]
The viability at 28.5 h, 10 µM of the first is lower: 92.2% for the first, 94.6% for the second.

Compared with `CN1CCN(c2cc3c(cc2F)c(=O)c(C(=O)O)cn3-c2ccc(F)cc2)CC1` [CBK287138], `OC1CCN(Cc2ccc(-c3ccc(F)cc3F)o2)CC1` [CBK283200] is higher in viability at 28.5 h, 10 µM: 78.4% for the first, 98.9% for the second.

Going from `Cc1cc(C2CCCN2C(=O)c2ccc(C(F)(F)F)nc2)on1` (stereo not shown) [CBK305761] to `CC(C)(C)OC(=O)N1CCC(N(CCC(F)(F)F)Cc2ccc(-c3ccc(S(C)(=O)=O)cc3)nc2)CC1` [CBK167262], the viability at 28.5 h, 10 µM falls from 88.6% to 81%.

First: CN(C)c1ccc(CN(CCO)CCO)cc1 [CBK261921]
Second: COCCNc1nc(-c2ccc3c(c2)OCO3)ccc1C(=O)N(C)CCN(C)C [CBK105915]
The viability at 28.5 h, 10 µM of the first is lower: 88.3% for the first, 103% for the second.

Going from `FC(F)(F)c1ccnc(OCc2ccc(Cl)c(Cl)c2)c1` [CBK116623] to `Clc1ccc(COc2nccnc2OC2CCN(CC3CC3)CC2)cc1Cl` [CBK083123T], the viability at 28.5 h, 10 µM rises from 89.2% to 92.4%.

Compared with `CCCn1cnc2c1CN(C(C)=O)[C@H](C(=O)OC)C2` [CBK288995], `CN1CCN(CCCNC(=O)c2ccc(-c3ccc(C(=O)N(C)C)cc3)nc2)CC1` [CBK158343] is lower in viability at 28.5 h, 10 µM: 101% for the first, 95% for the second.

First: O=c1[nH]c(NCc2ccccc2)nc2c1CCCC2 [CBK307423]
Second: CN(C)CCNc1c2c(nc3ccccc13)CCC2 [CBK263732C]
The viability at 28.5 h, 10 µM of the first is lower: 89.9% for the first, 98.1% for the second.

Going from `O=C(NC(=O)C1CCNCC1)Nc1ccccc1` [CBK034794] to `O=S(=O)(c1ccccc1)c1cncc(N2CCNCC2)n1` [CBK051078C], the viability at 28.5 h, 10 µM falls from 93.8% to 89.3%.

Compared with `Cc1nn(-c2cccc(Br)c2)c(C)c1[C@@H]1C=C[C@@H](NS(C)(=O)=O)C1` [CBK288806], `CCN(CC)C(=O)c1ccc(NS(=O)(=O)c2cc(F)c(Br)cc2F)cc1` [CBK034388] is higher in viability at 28.5 h, 10 µM: 86.3% for the first, 90.1% for the second.

Compared with `NC(=O)C1(N2CCCCC2)CCN(C(=S)NC2CCCC2)CC1` [CBK091884], `O=C(c1ccco1)N1CCC(c2onc3c2CCCCC3)CC1` [CBK284486] is higher in viability at 28.5 h, 10 µM: 88.1% for the first, 91% for the second.

Going from `CCc1ccc(CNC2CCN(Cc3cscn3)CC2)o1` [CBK305104] to `COc1ccc(CN2CCC(c3ncc(C(=O)Nc4ccc(F)cc4)c(C)n3)CC2)cc1` [CBK285629], the viability at 28.5 h, 10 µM rises from 92.7% to 101%.

Going from `O=C(NCc1nnc(-c2cccs2)o1)c1cccc(F)c1F` [CBK284634] to `Cc1cc(Cl)ccc1CNC(=O)c1ccccc1Nc1cccc(C(F)(F)F)c1` [CBK149544], the viability at 28.5 h, 10 µM rises from 91.1% to 97.3%.

Going from `N#CC1=C(N)Oc2[nH]nc(-c3ccc4ccccc4c3)c2C1c1cn(CC(N)=O)nc1-c1ccccc1` (stereo not shown) [CBK266624] to `O=C(NCCS(=O)(=O)c1ccccc1)c1cnc(-c2ccc(Cl)cc2)c(-c2ccncc2)c1` [CBK037587], the viability at 28.5 h, 10 µM falls from 107% to 100%.

Going from `COc1ccc(C2Nc3ccccc3C(=O)N2c2ccc(C)cc2)cc1Cn1nc(C)c([N+](=O)[O-])c1C` (stereo not shown) [CBK263703] to `Cc1ccc(C(=O)C2=C(O)C(=O)N(CCCn3ccnc3)C2c2cccc([N+](=O)[O-])c2)cc1` (stereo not shown) [CBK263319], the viability at 28.5 h, 10 µM rises from 106% to 115%.

First: CC(C)[C@@H](CO)Nc1nc(-c2cccc(Br)c2)cnc1N [CBK063758]
Second: CC(C)Cc1[nH]nc(O)c1-c1ccccc1 [CBK075134]
The viability at 28.5 h, 10 µM of the first is lower: 99.5% for the first, 103% for the second.

Going from `Cc1cc(C)cc(NC(=O)C2C3C4CCC(C4)C23)c1` (stereo not shown) [CBK058768] to `CC1=C(C)CC(C(=O)Nc2ccc3c(c2)oc2ccccc23)C(C(=O)O)C1` (stereo not shown) [CBK263533], the viability at 28.5 h, 10 µM falls from 108% to 102%.

Compared with `CCN(CC)CCOC(=O)c1oc2c3c(ccc2c1C)OCCO3` [CBK008676C], `COc1c(C)cnc(COC(=O)N2CCOCC2)c1C` [CBK200145] is lower in viability at 28.5 h, 10 µM: 115% for the first, 105% for the second.

First: COc1ccc([C@@]23CC[C@H](NC(=O)Nc4cccc(C(F)(F)F)c4F)C[C@@H]2CN(C)C3)cc1OC [CBK063200A]
Second: COc1ccc([C@@]23CC[C@@H](NC(=O)Nc4ncc(Cl)s4)C[C@@H]2N(C)CC3)cc1OC [CBK051620T]
The viability at 28.5 h, 10 µM of the first is lower: 92.3% for the first, 96.1% for the second.

First: CCC(SC1=NCCS1)C(=O)Nc1ccc(NC(C)=O)cc1 (stereo not shown) [CBK266199]
Second: CC(=O)N1CCc2sccc2C1c1ccc(NC(=O)c2ccc(F)cc2)cc1 (stereo not shown) [CBK286434]
The viability at 28.5 h, 10 µM of the first is higher: 97.4% for the first, 89% for the second.

`COc1ccc2c(c1)c(=O)oc1cc(OCC(=O)N3CCc4ccccc4C3)ccc12` [CBK266346] and `Cc1cc(NC(=O)c2ccco2)nc2c1c(=O)oc1ccccc12` [CBK291124] are the same in viability at 28.5 h, 10 µM: 110% for the first, 110% for the second.

Compared with `Nc1nc(CN2CCN(c3ccccc3F)CC2)nc(N2CCCc3ccccc32)n1` [CBK270234], `O=C(NC1Cc2ccccc2C1)c1nc2ccccc2[nH]1` [CBK200361] is higher in viability at 28.5 h, 10 µM: 87.4% for the first, 102% for the second.

First: COCCN(C)S(=O)(=O)c1cc(C)c(Cl)cc1C [CBK043867]
Second: Cc1cc(CN(C)Cc2cnn(Cc3ccccc3)c2C)n[nH]1 [CBK283017]
The viability at 28.5 h, 10 µM of the first is higher: 105% for the first, 94.6% for the second.

Compared with `O=C(Cn1ccc(=O)[nH]c1=O)NCc1cccnc1OC1CCCC1` [CBK305582], `O=C(COc1ccc(S(=O)(=O)N2CCCCC2)cc1)NCc1cccnc1` [CBK268328] is higher in viability at 28.5 h, 10 µM: 94.9% for the first, 97.6% for the second.

Compared with `COc1cccc(C2C(C(=O)c3ccc(Br)cc3)=C(O)C(=O)N2CCCN(C)C)c1` (stereo not shown) [CBK264921], `COc1cccc2cc(C(=O)Nc3ccc4[nH]ccc4c3)oc12` [CBK149819] is higher in viability at 28.5 h, 10 µM: 84.5% for the first, 91.5% for the second.

Compared with `CC1(C)CC(=O)C2=C(C1)Nc1ccccc1N(CC(=O)O)C2c1cccs1` (stereo not shown) [CBK286597], `CN(C(=O)c1ccccc1)[C@]1(C)C2CC(C[C@@H]2O)C1(C)C` (stereo partly shown) [CBK010498] is higher in viability at 28.5 h, 10 µM: 83.6% for the first, 102% for the second.

First: CC(NC(=O)Cc1ccc(F)cc1)c1nc2cccnc2n1C(C)C (stereo not shown) [CBK283830]
Second: O=S(=O)(Nc1cccnc1N1CCOCC1)c1ccc(F)cc1 [CBK051009]
The viability at 28.5 h, 10 µM of the first is lower: 88.7% for the first, 96.4% for the second.

Going from `O=C(CN1CCCC1c1ccc(Nc2ccc(F)cn2)cn1)Nc1ccc(F)cc1` (stereo not shown) [CBK285941] to `O=C(NCC1(N2CCOCC2)CCCCC1)c1ccccc1C(=O)c1ccc(F)cc1` [CBK297938], the viability at 28.5 h, 10 µM falls from 106% to 81%.

Going from `Cc1ncsc1CCOc1nccc(C(F)(F)F)n1` [CBK115798] to `COc1ncc(-c2cncc(NCCO)n2)c(OC)n1` [CBK037939], the viability at 28.5 h, 10 µM rises from 80.3% to 106%.

Compared with `O=C(CN1C(=O)N2CCN=C2c2ccccc21)N1CCCC1` [CBK283945], `O=C(Cc1c[nH]c2ccccc12)N1CCC2(CCCN(C(=O)c3cscn3)C2)C1` (stereo not shown) [CBK131590] is higher in viability at 28.5 h, 10 µM: 91.9% for the first, 99.1% for the second.

Compared with `O=c1c2nnc3ncnn3c2ccn1-c1ccccc1` [CBK288075], `O=C1N=C2C=CC=CN2C(=O)C1Cc1ccccc1` (stereo not shown) [CBK287874] is higher in viability at 28.5 h, 10 µM: 99.5% for the first, 110% for the second.

Going from `Cc1ccc(C(=O)NCCNS(=O)(=O)c2ccccc2)cc1` [CBK264145] to `O=C(CC1CCCO1)NS(=O)(=O)c1cccc(-c2nnco2)c1` (stereo not shown) [CBK305267], the viability at 28.5 h, 10 µM rises from 88.8% to 94.3%.

Going from `CCN1CCOC(CNc2ncnc3c2CCC3)C1` (stereo not shown) [CBK304811] to `c1ccc2c(c1)OCC(COc1nccnc1OC1CCN(CC3CC3)CC1)O2` (stereo not shown) [CBK083001T], the viability at 28.5 h, 10 µM falls from 106% to 96.5%.

First: CS(=O)(=O)N1CCN(CC(O)Cn2c3ccc(Cl)cc3c3cc(Cl)ccc32)CC1 (stereo not shown) [CBK264381]
Second: COc1ccc(CCNC(=O)Cn2ccc(C3CCCNC3)n2)cc1 (stereo not shown) [CBK304444]
The viability at 28.5 h, 10 µM of the first is higher: 94% for the first, 76.3% for the second.

First: O=C1CC[C@@H](NCc2ccsc2)[C@H](c2cc(F)cc(F)c2)N1 [CBK282910]
Second: COc1ccc(-c2nc(COC(=O)c3cccnc3N)cs2)cc1OC [CBK296741]
The viability at 28.5 h, 10 µM of the first is higher: 102% for the first, 82.6% for the second.

In the case of `Nc1cc2ccccc2c(-c2ccc(OC(F)(F)F)cc2)n1` [CBK085725], the viability at 28.5 h, 10 µM was 99.4%.

Same assay, conditions: human, hela cells, % viability, bulk resorufin, single well

With `CNC(=O)c1nn(Cc2ccc(Cl)cc2)c2ccccc12` [CBK088451] the viability at 28.5 h, 10 µM was 87.6%.
